One may read the pKa as the pH at which an ionisable group is half protonated. The low end stands for a stronger acid or weaker base, the high end for a weaker acid or stronger base.

Each structure is given as a SMILES string.

The source of these data is US20250099393A1, “IONIZABLE LIPIDS, LIPID NANOPARTICLES, AND USES THEREOF” (Verily Life Sciences LLC, priority 2022, published 2025).

The data set can be described thus: pKa of the ionizable lipid (ethanolamine headgroup). The note with it: uncharged at physiological pH. The data set is classed as physicochemical.

With `CCCCC/C=C\C/C=C\CCCCCCCCOC(=O)CCCCCCCN(CCO)CCCCCCCC(=O)OC(CCCCCCCC)CCCCCCCC` [PCTA-1], the pKa is 6.2 to 6.8.
